Patent US20130102631A1, “NOVEL MICROBIOCIDAL DIOXIME ETHER DERIVATIVES” (SYNGENTA CROP PROTECTION LLC, priority 2010, published 2013)

Experiments:
[1] = system: Phaeosphaeria nodorum (Septoria nodorum); assay: Phaeosphaeria nodorum (Septoria nodorum) / wheat / leaf disc preventative (glume blotch); format: in vivo; conditions: Parastagonospora nodorum, foliar, wheat leaf segments cv Kanzler, inoculated 2 days after application, assessed 5-7 days after application
Method in brief: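 Wheat cv Kanzler leaf segments on agar were sprayed with formulated compound at 200 ppm and inoculated with spores 2 days later. Incubation at 20 °C, 75% RH, 12/12 h light/dark; percent disease control versus untreated scored 5–7 days after application.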

[2] = system: Glomerella lagenarium; assay: Glomerella lagenarium (Colletotrichum lagenarium) / liquid culture (anthracnose); format: cell-based; conditions: Colletotrichum orbiculare; at ≦200 ppm, liquid culture PDB, inhibition of growth photometrically 3-4 days after application; read-out: control of Glomerella lagenarium
Method in brief: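 Glomerella lagenarium conidia in potato dextrose broth added to test compound supplied in DMSO in microtiter wells. Plates incubated at 24° C.; growth inhibition measured photometrically 3-4 days after application.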

[3] = system: Puccinia recondita f. sp. tritici; assay: Puccinia recondita f. sp. tritici / wheat / leaf disc preventative (brown rust); format: in vivo; conditions: foliar, wheat leaf segments cv Kanzler, inoculated 1 day after application, assessed 7-9 days after application
Protocol: Puccinia recondita f. sp. Tritici/Wheat/Leaf Disc Preventative (Brown Rust): Wheat leaf segments cultivated variety (cv) Kanzler were placed on agar in 24-well plates and sprayed with formulated test compound diluted in water at an application rate of 200 ppm. The leaf disks were inoculated with a spore suspension of the fungus 1 day after application. The inoculated leaf segments were incubated at 19° C. and 75% relative humidity under a light regime of 12/12 h (light/dark) in a climate cabinet and the activity of a compound was assessed as percent disease control compared to untreated when an appropriate level of disease damage appears in untreated check leaf segments (7-9 days after application). […]-2.508; 5.561; 2.561; 2.513; 2.559; 2.556; 2.555; 2.374; 2.544; 2.537; 2.530; 2.525 (fraction B); 2.519; 2.516; 2.514; E/E-5.167; E/E-3.002; 2.512; E/E-2.507

[4] = system: Mycosphaerella graminicola (Septoria tritici); assay: Mycosphaerella graminicola (Septoria tritici) / liquid culture (Septoria blotch); format: cell-based; conditions: Zymoseptoria tritici; at ≦200 ppm, liquid culture PDB, inhibition of growth photometrically 4-5 days after application; read-out: control of Mycosphaerella graminicola
[5] = system: Blumeria graminis f. sp. tritici (Erysiphe graminis f. sp. tritici); assay: Blumeria graminis f. sp. tritici / wheat / leaf disc preventative (powdery mildew on wheat); format: in vivo; conditions: foliar, wheat leaf segments cv. Kanzler, inoculated 1 day after application, assessed 6-8 days after application
Method in brief: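 Wheat cv. Kanzler leaf segments on agar sprayed with formulated compound at 200 ppm, inoculated 1 day later with powdery mildew, incubated at 20° C, 60% RH (24 h dark then 12 h/12 h). Percent disease control versus untreated scored 6-8 days after application.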

[6] = system: Pyrenophora teres; assay: Pyrenophora teres / barley / leaf disc preventative (net blotch); format: in vivo; conditions: foliar, barley leaf segments cv Hasso, inoculated two days after application, assessed 5-7 days after application
Protocol: Pyrenophora teres/Barley/Leaf Disc Preventative (Net Blotch): Barley leaf segments cv Hasso are placed on agar in a 24-well plate and sprayed with formulated test compound diluted in water at an application rate of 200 ppm. The leaf segments are inoculated with a spore suspension of the fungus two days after application of the test solution. The inoculated leaf segments are incubated at 20° C. and 65% relative humidity under a light regime of 12/12 h (light/dark) in a climate cabinet and the activity of a compound is assessed as disease control compared to untreated when an appropriate level of disease damage appears in untreated check leaf segments (5-7 days after application). […]-2.507; 5.561; 2.561; E/E-2.208; P.57; 2.513; 2.559; 2.558; 2.556; 2.555; 2.374; 2.552; 2.544; 2.537; 2.533; 2.530; 2.528; 2.519; 2.510; 2.516; 2.514; E/E-5.167; E/E-3.002; 2.512

COc1cccc(/C(C)=N/OCC(C)(C)CO/N=C2\CCCc3ccc(C)nc32)n1 [Compound 2.374]
≥ 80%: pest or weed control at 200 ppm [1] | inhibition of growth at up to 200 µg/mL [2] | pest or weed control at 200 ppm [3] | inhibition of growth at up to 200 µg/mL [4] | pest or weed control at 200 ppm [5] | pest or weed control at 200 ppm [6]

C/C(=N\OCC(C)(C)CO/N=C1\CCCc2ccc(C)nc21)c1ccc2ccccc2n1 [Compound 2.512]
≥ 80%: pest or weed control at 200 ppm [1] | inhibition of growth at up to 200 µg/mL [2] | pest or weed control at 200 ppm [3] | inhibition of growth at up to 200 µg/mL [4] | pest or weed control at 200 ppm [5] | pest or weed control at 200 ppm [6]

C/C(=N\OCC(C)(C)CO/N=C1\CCCc2ccc(C)nc21)c1ccc2c(n1)CCCC2 [Compound 2.513]
≥ 80%: pest or weed control at 200 ppm [1] | inhibition of growth at up to 200 µg/mL [2] | pest or weed control at 200 ppm [3] | inhibition of growth at up to 200 µg/mL [4] | pest or weed control at 200 ppm [5] | pest or weed control at 200 ppm [6]

C/C(=N\OCCCO/N=C1\CCCc2ccc(C)nc21)c1cccc(-c2ccccc2)n1 [Compound 2.514]
≥ 80%: pest or weed control at 200 ppm [1] | inhibition of growth at up to 200 µg/mL [2] | pest or weed control at 200 ppm [3] | inhibition of growth at up to 200 µg/mL [4] | pest or weed control at 200 ppm [5] | pest or weed control at 200 ppm [6]

CC/C(=N\OCC(C)(C)CO/N=C1\CCCc2ccc(C)nc21)c1ccccn1 [Compound 2.516]
≥ 80%: pest or weed control at 200 ppm [1] | inhibition of growth at up to 200 µg/mL [2] | pest or weed control at 200 ppm [3] | inhibition of growth at up to 200 µg/mL [4] | pest or weed control at 200 ppm [5] | pest or weed control at 200 ppm [6]

C/C(=N/OCC(C)(C)CO/N=C1\CCCc2ccc(C)nc21)c1ccccn1 [Compound 2.519]
≥ 80%: pest or weed control at 200 ppm [1] | inhibition of growth at up to 200 µg/mL [2] | pest or weed control at 200 ppm [3] | inhibition of growth at up to 200 µg/mL [4] | pest or weed control at 200 ppm [5] | pest or weed control at 200 ppm [6]

Cc1ccc2c(n1)/C(=N/OCC(C)(C)CO/N=C/c1cccc(Oc3ccccc3)n1)CCC2 [Compound 2.530]
≥ 80%: pest or weed control at 200 ppm [1] | inhibition of growth at up to 200 µg/mL [2] | pest or weed control at 200 ppm [3] | inhibition of growth at up to 200 µg/mL [4] | pest or weed control at 200 ppm [5] | pest or weed control at 200 ppm [6]

Cc1ccc(O)c(/C=N/OCC(C)(C)CO/N=C2\CCCc3ccc(C)nc32)n1 [Compound 2.533]
≥ 80%: pest or weed control at 200 ppm [1] | inhibition of growth at up to 200 µg/mL [2] | inhibition of growth at up to 200 µg/mL [4] | pest or weed control at 200 ppm [5] | pest or weed control at 200 ppm [6]

C/C(=N\OCC(C)(C)CO/N=C1\CCCc2ccc(Cl)nc21)c1cc(C)cc(C)n1 [Compound 2.555]
≥ 80%: pest or weed control at 200 ppm [1] | inhibition of growth at up to 200 µg/mL [2] | pest or weed control at 200 ppm [3] | inhibition of growth at up to 200 µg/mL [4] | pest or weed control at 200 ppm [5] | pest or weed control at 200 ppm [6]

C/C(=N\OCC(C)(C)CO/N=C1\CCCc2ccc(Oc3ccccc3)nc21)c1cc(C)cc(C)n1 [Compound 2.556]
≥ 80%: pest or weed control at 200 ppm [1] | inhibition of growth at up to 200 µg/mL [2] | pest or weed control at 200 ppm [3] | inhibition of growth at up to 200 µg/mL [4] | pest or weed control at 200 ppm [5] | pest or weed control at 200 ppm [6]

C/C(=N\OCC(C)(C)CO/N=C1\CCCc2ccc(-c3cccc(C)n3)nc21)c1cc(C)cc(C)n1 [Compound 2.559]
≥ 80%: pest or weed control at 200 ppm [1] | inhibition of growth at up to 200 µg/mL [2] | pest or weed control at 200 ppm [3] | inhibition of growth at up to 200 µg/mL [4] | pest or weed control at 200 ppm [5] | pest or weed control at 200 ppm [6]

C/C(=N\OCC(C)(C)CO/N=C1\CCCc2c1nc1ccccc1c2C)c1cc(C)cc(C)n1 [Compound 2.561]
≥ 80%: pest or weed control at 200 ppm [1] | inhibition of growth at up to 200 µg/mL [2] | pest or weed control at 200 ppm [3] | inhibition of growth at up to 200 µg/mL [4] | pest or weed control at 200 ppm [5] | pest or weed control at 200 ppm [6]

C/C(=N\OCC1(CO/N=C2\CCCc3c2nc2ccccc2c3C)CC1)c1cc(C)cc(C)n1 [Compound 5.561]
≥ 80%: pest or weed control at 200 ppm [1] | inhibition of growth at up to 200 µg/mL [2] | pest or weed control at 200 ppm [3] | inhibition of growth at up to 200 µg/mL [4] | pest or weed control at 200 ppm [5] | pest or weed control at 200 ppm [6]

C/C(=N\OCC(C)(C)CO/N=C1\CCCc2ccc(C)nc21)c1cccc(C)n1 [E/E-2.002]
≥ 80%: pest or weed control at 200 ppm [1] | inhibition of growth at up to 200 µg/mL [2] | pest or weed control at 200 ppm [3] | inhibition of growth at up to 200 µg/mL [4] | pest or weed control at 200 ppm [5] | pest or weed control at 200 ppm [6]

C/C(=N\OCC(C)(C)CO/N=C1\CCCc2ccc(C)nc21)c1cc(C)cc(C)n1 [E/E-2.168]
≥ 80%: pest or weed control at 200 ppm [1] | inhibition of growth at up to 200 µg/mL [2] | pest or weed control at 200 ppm [3] | inhibition of growth at up to 200 µg/mL [4] | pest or weed control at 200 ppm [5] | pest or weed control at 200 ppm [6]

Cc1cccc(/C(=N/OCC(C)(C)CO/N=C2\CCCc3ccc(C)nc32)c2ccccc2)n1 [E/E-2.474]
≥ 80%: pest or weed control at 200 ppm [1] | inhibition of growth at up to 200 µg/mL [2] | pest or weed control at 200 ppm [3] | inhibition of growth at up to 200 µg/mL [4] | pest or weed control at 200 ppm [5] | pest or weed control at 200 ppm [6]

Cc1ccc2c(n1)/C(=N/OCC(C)(C)CO/N=C/c1ccc3ccccc3n1)CCC2 [E/E-2.507]
≥ 80%: pest or weed control at 200 ppm [1] | inhibition of growth at up to 200 µg/mL [2] | pest or weed control at 200 ppm [3] | inhibition of growth at up to 200 µg/mL [4] | pest or weed control at 200 ppm [6]

C/C(=N\OCC(C)(C)CO/N=C1\CCCc2ccc(C)nc21)c1cccc(Br)n1 [E/E-2.508]
≥ 80%: pest or weed control at 200 ppm [1] | inhibition of growth at up to 200 µg/mL [2] | pest or weed control at 200 ppm [3] | inhibition of growth at up to 200 µg/mL [4]

C=C(CO/N=C(\C)c1cccc(C)n1)CO/N=C1\CCCc2ccc(C)nc21 [E/E-3.002]
≥ 80%: pest or weed control at 200 ppm [1] | inhibition of growth at up to 200 µg/mL [2] | pest or weed control at 200 ppm [3] | inhibition of growth at up to 200 µg/mL [4] | pest or weed control at 200 ppm [5] | pest or weed control at 200 ppm [6]

C/C(=N\OCC1(CO/N=C2\CCCc3ccc(C)nc32)CC1)c1cc(C)cc(C)n1 [E/E-5.167]
≥ 80%: pest or weed control at 200 ppm [1] | inhibition of growth at up to 200 µg/mL [2] | pest or weed control at 200 ppm [3] | inhibition of growth at up to 200 µg/mL [4] | pest or weed control at 200 ppm [5] | pest or weed control at 200 ppm [6]
